“Also recorded” adds a separate entry of the source. Peptide text beside a SMILES is read from it. * marks the point of attachment. Cbz = O=C(OCc1ccccc1)*; CH2F = FC*
Columns and labels:
[1] = tested on: SIPS BEC; assay: Capillary morphogenesis in 3-D collagen gels by H2O2 stress-induced premature senescence (SIPS) BEC; assay type: cell-based, human
Experimental: The 3-D system has been described in detail by Davis et al. (J. Cell Sci. 114:917-930, 2001). Here, the system was used to assay the responsiveness of AD BEC and SIPS BEC to angiogenic stimulation. Briefly, 10^6 MBEC/ml were suspended within 3-D collagen matrices at 25 μl per well in the serum-free culture medium 199 containing VEGF (40 ng/ml) and bFGF (40 ng/ml) in 5% CO2 at 37° C. The cells were fixed with 3% glutaraldehyde in phosphate buffered saline. The sections were stained with hematoxylin/eosin and Hoechst 33342. The formation of intracellular vacuoles (stage I), tubules (stage II), and multicellular tubes and networks (stage III) were determined at 4 hr to 16 hr and 24 hr, respectively. The number of apoptotic cells were determined between 4 hr and 24 hr using double TUNEL/Hoechst staining. At least 200 cells were evaluated from an individual well. […] was quantified at 200 X magnification by counting four fields derived from triplicate wells. Subconfluent BEC cultures (34 days after subculture) were treated with H2O2 by adding it to the culture medium for 2 hr. To induce senescence, sublethal doses of H2O2 were determined and selected. […] H2O2-treated cells were subcultured and analyzed after 1, 2, 3, 4, 5, 6, 24, 48, 72, 96 and 120 hr for expression of different proteins involved in the cell cycle regulation and apoptosis. […]

[2] = tested on: BEC; assay: H2O2 model of stress-induced premature senescence in young human BEC; assay type: cell-based
Experimental: Subconfluent BEC cultures (34 days after subculture) were treated with H2O2 by adding it to the culture medium for 2 hr. To induce senescence, sublethal doses of H2O2 were determined and selected. After treatment, cells were washed with PBS (37° C.) before harvesting, subculturing or incubating with a fresh medium or 3-D collagen gels. H2O2-treated cells were subcultured and analyzed after 1, 2, 3, 4, 5, 6, 24, 48, 72, 96 and 120 hr for expression of different proteins involved in the cell cycle regulation and apoptosis. Cells in 60 mm dishes were lysed in SDS sample buffer directly. For Western blot analysis, proteins were separated by SDS-PAGE and transferred to PVDF membrane followed by incubation with different primary antibodies (see antibodies for.Western blot analysis). SIPS BEC were also prepared for microarray analysis on U95A chips as described above.

[3] = tested on: AD BEC; assay: Tube formation in 2-D collagen matrigels, AD BEC; assay type: cell-based, human; details: 10 μM
Experimental: AD or age-matched control (AMC) BEC (2×10^4 cells/well) were plated in 2-D collagen matrigels (growth factors per BD Biosciences, Bedford, Mass.) and treated with 100 nM APC or vehicle (−APC). Total tube length was determined at 24 hr (FIG. 6A). Mean±s.e., n=30 to 40 assays per group from four AD and three AMC cases. AD or AMC BEC were treated with 100 nM APC, 100 nM boiled (B) APC, 100 nM serine mutant (M) APC, or vehicle (−APC) for 24 hr. Total tube length was determined at 24 hr (FIG. 6B). Mean±s.e., n=10 assays per group from one AD and one AMC case. % TUNEL-positive BEC at 4 hr during AD-mediated or AMC-mediated capillary morphogenesis in the presence of 100 nM APC or vehicle (−APC) was calculated (FIG. 6C). Mean±s.e., n=20 assays per group from two AD and two AMC cases. % Caspase-3-positive BEC at 4 hr of brain capillary morphogenesis in AD or AMC treated with 100 nM APC or vehicle (−APC) was calculated (FIG. 6D). Mean±s.e., n=20 assays per group from two AD and two AMC cases. AD BEC (3×10^4) cells were assayed for migration in a modified Boyden chamber in the presence of vehicle (−APC), 100 nM APC, anti-APC C3 monoclonal antibody (200 μg/ml), or anti-APC+APC after 6 hr of incubation (FIG. 6E). Mean±s.e., n=6 assays per group from two AD cases. […]

[4] = tested on: AMC BEC; assay: Tube formation in 2-D collagen matrigels, age-matched control BEC; assay type: cell-based, human; details: 10 μM
Experimental: In 3D collagen gels (as described in FIG. 1), BEC that reached greater than 90% replicative senescence (RS) or were exposed to H2O2 (SIPS) formed an insignificant number of tubes (FIGS. 11A-11B, bar=50 μm). Total tube length—control BEC (arbitrarily taken as 100%) were compared to RS and SIPS BEC (FIG. 11C). The effect of SB202190 (SB, 10 μM for 1 hr) on SIPS-induced aberrant angiogenesis. Mean±s.e., n=9 assays per group from three different cases/group. In 2D collagen matrigels (growth factors per BD Biosciences, Bedford, Mass.), SB202190 (SB, 10 μM) increased the number of tubes in early passage AD BEC (FIGS. 11D-11E, bar=50 μm). SB202190 (SB, 10 μM) increases total tube length in both AMC and AD BEC (FIG. 11F). Mean±s.e., n=6-9 assays per group from two AMC and three AD cases.
In the 2-D system, collagen matrigels of matrix composition containing a supplement of growth factors were used according to manufacturer's instructions (BD Biosciences, Bedford, Mass.). In the 2-D matrix system, 2×10^4 cells/well were plated.
(§1) ZVAD-fmk (50 μM, Sigma), p38 MAPK antagonists including SB SB202190 (SB, 10 μM), and plasma-derived activated protein C (APC, prepared by Dr. J. H. Griffin's laboratory, 5-100 nM) were used.

[5] = tested on: caspase 3; assay: Western blot of activated caspase-3 in AD BEC lysates during capillary morphogenesis; assay type: cell-based, human; details: zVAD-fmk 50 μM, 24 hr
Experimental: Cell lysates were prepared from subconfluent BEC cultures, BEC at different stages of capillary morphogenesis or BEC exposed to SIPS (see below H2O2 model of SIPS). Antibodies for Western blot analysis included caspase 3, rabbit anti-human polyclonal, 1:100 (0.5 mg/ml, BD PharMingen); p53, mouse anti-human monoclonal, 1:200 (0.1 mg/ml, Oncogene); p16, mouse anti-human monoclonal, 1:250 (0.5 mg/ml, BD ParMingen); p21, mouse anti-human, 1:200 (0.4 mg/ml, Oncogene); Rb (Santa Cruz), p27 (Santa Cruz), fibronectin (Santa Cruz), PAI-1 (Santa Cruz) or phosphorylated p38 MAPK; gax, rabbit polyclonal against C-terminal region of the rat gax protein (amino acids SDHSSEHAHL), 1:500 (7 mg/ml, provided by Dr Kenneth Walsh); and β-actin, goat anti-human polyclonal, 1:2,500 (0.2 mg/ml, Santa Cruz Biotechnology). The secondary antibody was HRP-conjugated and peroxidase activity was detected with enhanced chemiluminescence detection kit (ECL, Pierce). The relative abundance of the primary antigen was determined by scanning densitometry using β-actin as an internal control.

[6] = tested on: AD BEC; assay: Brain capillary morphogenesis in 3-D collagen matrices (VEGF/bFGF) mediated by AD BEC; assay type: cell-based, human; details: zVAD-fmk 50 μM, 24 hr, VEGF and bFGF 40 ng/ml
Experimental: (§2) The 3-D system has been described in detail by Davis et al. (J. Cell Sci. 114:917-930, 2001). Here, the system was used to assay the responsiveness of AD BEC and SIPS BEC to angiogenic stimulation. Briefly, 10^6 MBEC/ml were suspended within 3-D collagen matrices at 25 μl per well in the serum-free culture medium 199 containing VEGF (40 ng/ml) and bFGF (40 ng/ml) in 5% CO2 at 37° C. The cells were fixed with 3% glutaraldehyde in phosphate buffered saline. The sections were stained with hematoxylin/eosin and Hoechst 33342. The formation of intracellular vacuoles (stage I), tubules (stage II), and multicellular tubes and networks (stage III) were determined at 4 hr to 16 hr and 24 hr, respectively. The number of apoptotic cells were determined between 4 hr and 24 hr using double TUNEL/Hoechst staining. At least 200 cells were evaluated from an individual well. […] was quantified at 200 X magnification by counting four fields derived from triplicate wells.
as §1

[7] = tested on: AD BEC; assay: Apoptosis (TUNEL, caspase-3 positive cells) during AD BEC-mediated capillary morphogenesis; assay type: cell-based, human
Experimental: as §2
Staining with APO-BRDU kit was performed according to manufacturer's instructions (Phoenix Flow Systems).

`OO` [H2O2] was tested. Which “number of tubes formed by H2O2-treated (SIPS) BEC” value ([1]; compared to untreated normal control cells) did it give?
Its value is “form an insignificant number of tubes”.

What about the “senescent phenotype (G1 arrest, flattened morphology, SA-β-gal)” value ([2]; 300 μM for 2 hr, within 48 hr) of the same compound?
The value was “developed a senescent phenotype”.

And the BEC apoptosis ([2]; concentrations higher than 300 μM, not shown)?
Its BEC apoptosis is “resulted in BEC apoptosis”.

For `Oc1ccc(-c2nc(-c3ccncc3)c(-c3ccc(F)cc3)[nH]2)cc1` [SB202190], which “augmentation of total tube length in the SIPS model” value ([1]; preincubation 10 μM for 1 hr, 3D collagen gels) is on record?
Its value is about 5 fold.

And the “number of tubes in early passage AD BEC” value [3]?
Its value is “completely restored; also recorded: increased”.

And the “total tube length, AD BEC” value [3]?
Its value is “increases”.

What about the “total tube length, AMC BEC” value [4] of the same compound?
Its value is “increases”.

Which results are given for `COC(=O)C[C@H](NC(=O)[C@H](C)NC(=O)[C@@H](NC(=O)OCc1ccccc1)C(C)C)C(=O)CF` [zVAD-fmk] (Cbz-Val-Ala-Asp(OMe)-CH2F)?
levels of activated form of caspase-3 [5]: preventing the formation of the active form of caspase 3; also recorded: reduced; number of tubes [6]: restored; total tube length [6]: restored; number of tubes ([6]; listed as zVAD): restoration; total tube length ([6]; listed as zVAD): restoration; apoptosis in AD BEC ([7]; during AD BEC-mediated capillary morphogenesis): prevents apoptosis; number of apoptotic AD BEC by TUNEL staining ([7]; zVAD, data not shown): decreased

From US20050170359A1, “Treatment of vascular dysfunction and alzheimer's disease” (priority 2002, published 2005)
